Assay results: PubChem BioAssay AID179 (DTP/NCI, 2004)
Active and inactive are the calls of the source.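 The calls were made as follows: active = compounds giving half or more protection of infected cells from virus-caused growth loss, again on retest; inactive = the rest.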

Tested on: CEM cells HIV-1 protection, formazan growth assay
Assay: NCI AIDS Antiviral Assay
Details: for IC50: measured here: growth of uninfected CEM cells
Method in brief: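 Five concentrations of each compound were applied to infected and uninfected human CEM cells. Protection from HIV-1 was judged from growth measured with a soluble formazan assay.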

SMILES	EC50 [µM]	IC50 [µM]	outcome
O=C(NNC(=O)c1ccccn1)c1ccccn1	> 200	4.68	–
CC1=C(C(=O)NCc2ccccc2)C(c2ccc(Cl)c(Cl)c2)C(C(=O)NCc2ccccc2)=C(C)N1	–	–	inactive
CC(=O)Nc1nc2c(=O)c3ccccc3sc2s1	–	–	inactive
NC12CCC(N)(c3ccccc31)c1ccccc12	> 200	> 200	–
COC(=O)C1CCC(=O)N1C(c1cc(OC)c(OC)c(OC)c1)c1cc(OC)c(OC)c(OC)c1 (stereo not drawn)	> 200	55	–
Cc1cn(C(C)OCCN(O)C(N)=O)c(=O)[nH]c1=O (stereo not drawn)	–	–	inactive
O=c1[nH]c(-c2ccccc2)nc2c1sc1nc3ccccc3n12	> 50.1	> 50.1	–
O=C(N/C(=C\c1ccc([N+](=O)[O-])cc1)c1nc2ccccc2s1)c1ccccc1	> 32.4	> 32.4	–
Cc1nn2cnnc2s1	> 501	> 501	–
OCCCCCCCCCCCOc1ccc(C2OCC3(CO2)COC(c2ccc(OCCCCCCCCCCCO)cc2)OC3)cc1 (stereo not drawn)	> 50.1	> 50.1	–
NC(N)=NCCCC(NC(=O)OCCCCCCn1ccc(N)nc1=O)C(=O)O (stereo not drawn)	> 200	> 200	–
N#CC1(c2nc3ccccc3o2)C(=O)C(=O)N(c2ccc(Cl)c(Cl)c2)C(=O)C1=O	> 302	282	–
Nc1o[nH]c(=O)c1C1CCCCC1	> 200	> 200	–
COC(=O)c1ccccc1/C=C1\Cc2c(ccc3c2CCC3)C1=O	> 151	> 151	–
COc1cccc(C=O)c1[O-].COc1cccc(C=O)c1[O-].[Cu+2]	> 97.7	9.33	–
CCOC(=O)c1[nH]n(-c2ccccc2)c(=O)c1/C=N/C(=S)Nc1c(CC)cccc1CC	> 100	24.5	–
COC(=O)C(C(=O)C(=O)Nc1c(C)cccc1C)c1cnc2ccccc2n1 (stereo not drawn)	> 50.1	> 50.1	–
COc1ccc(C(=O)CC2(O)C(=O)N(CN3CCOCC3)c3ccc(Br)cc32)cc1 (stereo not drawn)	> 123	105	–
CC(=O)c1nc2ccccc2n1CC(=O)c1ccc([N+](=O)[O-])cc1	> 200	7.59	–
COc1c(Cl)cc(C(=O)c2cc(Cl)c(OC)c(C(=O)O)c2)cc1C(=O)O	> 912	> 912	–
C=CC[C@]1(C(C)C(OC(C)=O)c2ccc3c(c2)OCO3)C[C@@H](OC)C=CC1=O (stereo partly drawn)	> 20	1.48	–
O=P1(Oc2ccccc2)C(c2ccccc2)C(c2ccccc2)=NN1c1ccccc1 (stereo not drawn)	> 12.3	> 12.3	–

SMILES	EC50 [µM]	IC50 [µM]	outcome
CC1(C)O[C@@H](C[C@]2(C#N)C[C@H](CCl)OC(C)(C)O2)C[C@@H](C#N)O1	–	> 200	inactive
O=C(NCCc1ccccc1)[C@H]1CCCC[C@@H]1CCO	> 200	> 200	–
O=C1/C(=C/c2ccc(O)cc2)Oc2ccccc21	> 200	151	–
O=C(ON=C1c2ccccc2C(Br)C(Br)c2ccccc21)c1ccccc1 (stereo not drawn)	> 200	3.31	–
O=C(NCCS(=O)(=O)N1C(=O)C2CCCN2C(=O)[C@@H]1Cc1ccccc1)OCc1ccccc1 (stereo partly drawn)	> 100	53.7	–
COc1ccc(S(=O)(=O)Nc2ccccc2C(=O)O)cc1	–	–	inactive
COc1ccccc1N1CCN(CCCNC(=O)c2cc(Cl)c(N)c(Cl)c2)CC1	> 200	89.1	–
COC(=O)CC(C(C(C)=O)C(=O)OCc1ccccc1)N1C(=O)OCC1c1ccccc1 (stereo not drawn)	> 100	95.5	–
COc1cccc(/C=N/N=C(/N)NO)c1	–	–	inactive
Cc1cc2nc3c4ccccc4scc-3c2cc1C	> 200	0.324	–
COc1ccc(N=Cc2ccc(N(CCC#N)S(=O)(=O)c3ccccc3)cc2)cc1	> 162	> 162	–
Cc1cccnc1NC(=S)Nc1ncccc1C	> 200	186	–
C=CCN1CCC(OC(=O)C(O)(/C=C\CC)C2CCCC2)CC1 (stereo not drawn)	> 200	> 200	–
O=[N+]([O-])c1cc([As](=O)(O)O)ccc1Cl	> 200	> 200	–
O=C1c2ccccc2/C=C\C(c2ccccc2)=N/N1c1ccccc1Cl	> 200	12.6	–
CC1(C)N=C(c2ccccn2)C(c2ccccn2)=NC1(C)C	> 851	661	–
N#C/C(=C\NC(=S)c1ccncc1)c1nc2ccccc2s1	> 200	145	–
CC1=C(C(=O)NCc2ccccc2)C(c2ccccc2O)C(C(=O)NCc2ccccc2)=C(C)N1	> 200	33.9	–
CP1CCC(O)(c2ccccc2)CC1 (stereo not drawn)	> 200	> 200	–
COC(=O)CSc1cc(Cl)c(C)cc1S(=O)(=O)Nc1n[nH]c(N)n1	> 200	> 200	–
N#C/C(=C\NC(=S)Nc1ccc(S(=O)(=O)Nc2nccs2)cc1)C(=O)c1ccc2ccccc2c1	> 200	36.3	–
O=c1cc(O)nc(CO)[nH]1	> 200	> 200	–
